One series has as its system Proteus mirabilis IMFOM9. Kind of series: Minimum inhibitory concentration, Proteus mirabilis. The class given is cell-based.
The test system of series [1] is Bacillus subtilis ATCC 6633. Put plainly: Minimum inhibitory concentration, Bacillus subtilis. The class given is cell-based. As to conditions: ATCC6633.
The next series deals with Shigella boydii IID 627. Put plainly: Minimum inhibitory concentration, Shigella boydii. The class given is cell-based. As to conditions: IID627.
The subject of a further series is Escherichia coli NIHJ. Put plainly: Minimum inhibitory concentration, Escherichia coli. The class given is cell-based.
Series [2] relates to Salmonella enteritidis 1891. Kind of series: Minimum inhibitory concentration, Salmonella enteritidis. The class given is cell-based. The note with it: Salmonella enterica.
Series [3] concerns Klebsiella pnuemoniae ATCC 10031. Kind of series: Minimum inhibitory concentration, Klebsiella pnuemoniae. The note with it: ATCC10031. The class given is cell-based.
A further series has as its system Proteus vulgaris OXK US. Kind of series: Minimum inhibitory concentration, Proteus vulgaris. The class given is cell-based.
Another series deals with Salmonella typhi H901W. Put plainly: Minimum inhibitory concentration, Salmonella typhi. It counts as cell-based. As to conditions: Salmonella enterica, read-out: Minimum inhibitory concentration.
Series [4] has as its system Pseudomonas aeruginosa NCTC 10490. Kind of series: Minimum inhibitory concentration, Pseudomonas aeruginosa. The class given is cell-based. As to conditions: NCTC10490.
In series [5] the test system is Staphylococcus aureus ATCC 6538F. Kind of series: Minimum inhibitory concentration, Staphylococcus aureus. It counts as cell-based. The note with it: ATCC6538F.
In the next series the test system is Proteus mirabilis. Put plainly: Antibacterial activity, plate disc method (diameter of inhibitory circle), Proteus mirabilis. It counts as cell-based. More on the design: unit not given here. The note with it: pH 8.0, plate disc method. The text has this: (§1) 3. The antibacterial activities to Proteus mirabilis and Salmonella gallinarum are as follows:
(§2) Peptone 1%, yeast extract 0.1%, agaragar 1%, pH 8.0, plate disc method,
(§3) the numerical values are the diameters of inhibitory circles.

Series [6] is described as follows: Solubility / hygroscopicity of the Na salt (physicochemical properties). As to conditions: for Solubility in methanol, ethanol, ethyl acetate, butyl acetate and other organic solvents: (n-)butanol (not named for compound C).
A further series relates to Salmonella gallinarum. Put plainly: Antibacterial activity, plate disc method (diameter of inhibitory circle), Salmonella gallinarum. The note with it: pH 8.0, plate disc method. The class given is cell-based.
From the text: as §1, §2, §3

Converted amounts (≈) assume the structure as drawn.

Turning to `COC(=Cc1ccc(OS(=O)(=O)O)cc1)C(=O)OCC1=C(C(=O)O)N2C(=O)[C@](NC(=O)CCC[C@@H](N)C(=O)O)(OC)[C@H]2SC1` [Comp. a, reference compound], the MIC in the series with Proteus mirabilis IMFOM9 was determined as 6.25 µg/mL (≈ 9.47 µM); in series [1] it was 50 µg/mL (≈ 75.8 µM); in the series with Shigella boydii IID 627, 25 µg/mL (≈ 37.9 µM); against Escherichia coli NIHJ, 25 µg/mL (≈ 37.9 µM); in [2], 25 µg/mL (≈ 37.9 µM); in series [3], 50 µg/mL (≈ 75.8 µM). Besides, the MIC in the series on Proteus vulgaris OXK US was 1.56 µg/mL (≈ 2.36 µM); in the series on Salmonella typhi H901W, 25 µg/mL (≈ 37.9 µM); in [4], greater than 100 µg/mL; in series [5] it was greater than 100 µg/mL.
As for `COC(=Cc1ccc(O)cc1)C(=O)OCC1=C(C(=O)O)N2C(=O)[C@](NC(=O)CCC[C@@H](N)C(=O)O)(OC)[C@H]2SC1` [Comp. b, reference compound], the MIC in the series with Proteus mirabilis IMFOM9 was 6.25 µg/mL (≈ 10.8 µM); in [1] it was 6.25 µg/mL (≈ 10.8 µM); in the series on Shigella boydii IID 627, 50 µg/mL (≈ 86.3 µM); against Escherichia coli NIHJ, 12.5 µg/mL (≈ 21.6 µM); in [2], 12.5 µg/mL (≈ 21.6 µM); in series [3], 25 µg/mL (≈ 43.1 µM). The MIC in the series with Proteus vulgaris OXK US is 6.25 µg/mL (≈ 10.8 µM); in the series with Salmonella typhi H901W, 50 µg/mL (≈ 86.3 µM); in [4] it was greater than 100 µg/mL; in series [5] it was 100 µg/mL (≈ 173 µM).
Regarding `CO[C@@]1(NC(=O)CCC[C@@H](N)C(=O)O)C(=O)N2C(C(=O)O)=C(COC(=O)/C=C/c3ccc(OS(=O)(=O)O)cc3)CS[C@@H]21` [Compound (A), 7β-(D-5-Amino-5-carboxyvaleramido)-7α-methoxy-3-(p-sulfooxycinnamoyloxymethyl)-Δ^3-cephem-4-carboxylic acid], the MIC against Proteus mirabilis IMFOM9 was determined as 0.78 µg/mL (≈ 1.24 µM); in [1], 12.5 µg/mL (≈ 19.9 µM); against Shigella boydii IID 627, 6.25 µg/mL (≈ 9.93 µM); in the series with Escherichia coli NIHJ, 6.25 µg/mL (≈ 9.93 µM); in series [2] it was 6.25 µg/mL (≈ 9.93 µM); in series [3], 25 µg/mL (≈ 39.7 µM). Further, the MIC was 0.39 µg/mL (≈ 0.619 µM) in the series on Proteus vulgaris OXK US, 3.13 µg/mL (≈ 4.97 µM) in the series on Salmonella typhi H901W, greater than 100 µg/mL in series [4] and 100 µg/mL (≈ 159 µM) in [5]. Further, the “diameter of inhibitory circle” value turned out to be 22.3 with Proteus mirabilis (100 γ/ml), 28.7 in the series with Proteus mirabilis (500 γ/ml), 17.0 in the series with Salmonella gallinarum (100 γ/ml) and 21.5 in the series with Salmonella gallinarum (500 γ/ml). In series [6] (ethyl acetate, butyl acetate), the “Solubility in methanol, ethanol, ethyl acetate, butyl acetate and other organic solvents” value (from here on “Solubility in methanol, ethanol”) is given as “scarcely”. Also, in [6], the Solubility in water result is listed as “Easily soluble”.
With `CO[C@@]1(NC(=O)CCCC(=O)O)C(=O)N2C(C(=O)O)=C(COC(=O)/C=C/c3ccc(OS(=O)(=O)O)cc3)CS[C@@H]21` [Compound (B), 7β-(4-Carboxybutyramido)-7α-methoxy-3-(p-sulfooxycinnamoyloxymethyl)-Δ^3-cephem-4-carboxylic acid], the MIC was found to be 12.5 µg/mL (≈ 20.8 µM) against Proteus mirabilis IMFOM9; 100 µg/mL (≈ 167 µM) in [1]; 25 µg/mL (≈ 41.6 µM) with Shigella boydii IID 627; 6.25 µg/mL (≈ 10.4 µM) in the series with Escherichia coli NIHJ; 50 µg/mL (≈ 83.3 µM) in series [2]; 25 µg/mL (≈ 41.6 µM) in series [3]. Besides, the MIC against Proteus vulgaris OXK US is 6.25 µg/mL (≈ 10.4 µM); in the series with Salmonella typhi H901W, 50 µg/mL (≈ 83.3 µM); in series [4], greater than 100 µg/mL; in [5], 100 µg/mL (≈ 167 µM). Further, the “diameter of inhibitory circle” value in the series on Proteus mirabilis (100 γ/ml) is listed as 17.6; in the series on Proteus mirabilis (500 γ/ml), 27.2; in the series with Salmonella gallinarum (100 γ/ml), 14.2; in the series with Salmonella gallinarum (500 γ/ml), 18.3. Besides, the “Solubility in methanol, ethanol” value in series [6] (ethyl acetate, butyl acetate) is listed as “scarcely soluble”. In addition, in [6], the Solubility in water entry is given as “Easily soluble”.
Take `CO[C@@]1(NC(=O)CCC[C@@H](N)C(=O)O)C(=O)N2C(C(=O)O)=C(COC(=O)/C=C/c3ccc(O)cc3)CS[C@@H]21` [Compound (C), 7β-(D-5-amino-5-carboxyvaleramido)-3-(p-hydroxycinnamoyloxymethyl)-7α-methoxy-Δ^3-cephem-4-carboxylic acid]: the MIC turned out to be 0.78 µg/mL (≈ 1.42 µM) in the series on Proteus mirabilis IMFOM9; 3.13 µg/mL (≈ 5.7 µM) in series [1]; 6.25 µg/mL (≈ 11.4 µM) against Shigella boydii IID 627; 3.13 µg/mL (≈ 5.7 µM) in the series on Escherichia coli NIHJ; 1.56 µg/mL (≈ 2.84 µM) in [2]; 3.13 µg/mL (≈ 5.7 µM) in [3]. Also, the MIC is 0.78 µg/mL (≈ 1.42 µM) in the series on Proteus vulgaris OXK US, 12.5 µg/mL (≈ 22.7 µM) in the series on Salmonella typhi H901W, greater than 100 µg/mL in series [4] and 50 µg/mL (≈ 91 µM) in series [5]. Besides, the “diameter of inhibitory circle” value with Proteus mirabilis (100 γ/ml) came out at 22.0; in the series on Proteus mirabilis (500 γ/ml), 27.8; with Salmonella gallinarum (100 γ/ml), 15.1; in the series with Salmonella gallinarum (500 γ/ml), 20.0. In addition, the “Solubility in methanol, ethanol” value in series [6] (ethyl acetate, butyl acetate) was “scarcely soluble”. In addition, the Solubility in water entry in series [6] is “Easily soluble”.
Turning to `CO[C@@]1(NC(=O)CCCC(=O)O)C(=O)N2C(C(=O)O)=C(COC(=O)/C=C/c3ccc(O)cc3)CS[C@@H]21` [Compound (D), 7β-(4-carboxybutyramido)-3-(p-hydroxycinnamoyloxymethyl)-7α-methoxy-Δ^3-cephem-4-carboxylic acid], the MIC was determined as 6.25 µg/mL (≈ 12 µM) against Proteus mirabilis IMFOM9; 100 µg/mL (≈ 192 µM) in [1]; 12.5 µg/mL (≈ 24 µM) with Shigella boydii IID 627; 6.25 µg/mL (≈ 12 µM) against Escherichia coli NIHJ; 25 µg/mL (≈ 48 µM) in [2]; 12.5 µg/mL (≈ 24 µM) in [3]. In addition, the MIC in the series on Proteus vulgaris OXK US is 3.13 µg/mL (≈ 6.01 µM); with Salmonella typhi H901W it was 25 µg/mL (≈ 48 µM); in [4] it was greater than 100 µg/mL; in series [5], 50 µg/mL (≈ 96.1 µM). In addition, the “diameter of inhibitory circle” value in the series on Proteus mirabilis (100 γ/ml) is given as 18.0; in the series with Proteus mirabilis (500 γ/ml), 27.7; with Salmonella gallinarum (100 γ/ml), 11.5; in the series on Salmonella gallinarum (500 γ/ml), 16.2. Further, the Hygroscopicity result in series [6] is reported as “Very hygroscopic”. Moreover, the “Solubility in ethyl acetate, butyl acetate, n-butanol and other organic solvents” value in [6] (ethyl acetate, butyl acetate, n-butanol and other organic solvents) was “scarcely soluble”. For the same molecule, the “Solubility in methanol and ethanol” value in [6] (methanol and ethanol) is reported as “slightly soluble”. Also, the Solubility in water result in series [6] was “Easily soluble”.
In the case of `CO[C@@]1(NC(=O)CCCC(N)C(=O)O)C(=O)N2C(C(=O)O)=C(CSc3nnnn3C)CS[C@@H]21` (some centres unmarked) [Y-G19Z-G, 7(5-amino-5-carboxyvaleramido)-7-methoxy-3-(1-methyl-1H-tetrazol-5-yl)thimethyl-Δ^3cephem-4-carboxylic acid, reference compound], the “diameter of inhibitory circle” value in the series with Proteus mirabilis (100 γ/ml) is listed as 21.6; in the series with Proteus mirabilis (500 γ/ml), 27.0; in the series on Salmonella gallinarum (100 γ/ml) it was 18.5; with Salmonella gallinarum (500 γ/ml), 21.5.
As for `CO[C@@]1(NC(=O)CCCC(=O)O)C(=O)N2C(C(=O)O)=C(CSc3nnnn3C)CS[C@@H]21` [Y-G19Z-GG, 7(4-carboxybutyramido)-7-methoxy-3-(1-methyl-1H-tetrazol-5-yl)thio-methylΔ^3cephem-4-carboxylic acid, reference compound], the “diameter of inhibitory circle” value is on record as 19.0 in the series with Proteus mirabilis (500 γ/ml) and 16.0 in the series with Salmonella gallinarum (500 γ/ml).
